From publication PMC11474193, “A cub and sushi domain-containing protein with esterase-like activity confers insecticide resistance in the Indian malaria vector Anopheles stephensi” (The Journal of Biological Chemistry, 2024)

Tests used:
[1] = test system: T1, CUB and Sushi Domain-containing Insecticide Resistance (CSDIR) protein (XP_035915664.1); assay: SPR, steady-state fit; degradation by the protein also shown by UPLC; format: binding, Anopheles stephensi
T1 construct: CSDIR^913-1190 (C-terminal CUB and Sushi domains, recombinant in E. coli)

[2] = test system: T1, CUB and Sushi Domain-containing Insecticide Resistance (CSDIR) protein (XP_035915664.1); assay: SPR, immobilized CSDIR913-1190, steady-state fit; format: binding, Anopheles stephensi

SMILES	Kd [1] [µM]	Kd [2] [µM]
CC1(C)[C@H](C(=O)O[C@H](C#N)c2cccc(Oc3ccccc3)c2)[C@@H]1C=C(Br)Br [deltamethrin]	46.7	
CCOC(=O)CC(SP(=S)(OC)OC)C(=O)OCC (centres unmarked) [malathion]		6.43
